Experimental data: US9249466B2, “Methods and compositions for treating cancer” (Agency for Science, Technology and Research, priority 2010, dated 2016)
“Also recorded” adds a separate entry of the source.

Experiments:
[1] = test system: HEK-TERV cells; assay: Apoptotic assay in HEK-TERV cells; format: cell-based, human; conditions: 10 nM for 24 h; PDK1-transformed vs control or PI3K (E545)-transformed cells
[2] = test system: DLD1 and SW480 cells; assay: Cell viability of DLD1 and SW480 cells under drug combinations; format: cell-based, human; conditions: SW480 and DLD1 cells, BI 2536 10 nM plus BEZ 235 10 nM
Description: (§1) Cell viability was measured using CellTiter-Glo™ Luminescent Cell Viability Assay (Promega).
(§2) In brief, 1000 cells were seeded in 96-well plate and the cell number was measured following manufacturer's instruction. To detect the senescence in DLD1-tet on cells, cells were treated with Dox for 48 hr and SA-β-Gal staining was performed according to the protocol of Senescence Detection kit (BioVision). Cell cycle analysis was done by DNA content quantification.

[3] = test system: HEK-PDK1 cells; assay: Tumor sphere formation in HEK-PDK1 cells; format: cell-based, human; conditions: 5 nM BI2536 for 7 days
[4] = test system: DLD1 and SW480 cells; assay: Monolayer dense foci / colony formation of DLD1 and SW480 cells; format: cell-based, human; conditions: monolayer colony formation, 12 days
Description: For DLD1 and HCT116 inducible cells foci formation assay, 1×10^4 cells were seeded on 6-well plate with or without treatment with Dox or rapamcycin. […]

[5] = test system: SW480 and DLD1 cells; assay: Apoptotic assay in SW480 and DLD1 cells; format: cell-based, human; conditions: BI2536 10 nM plus BEZ 235 100 nM, 48 hr
[6] = test system: DLD1-PPP2R2B cells; assay: Xenograft tumor growth of DLD1-PPP2R2B cells in nude mice; format: in vivo, BALB/c nude mice
Description: The female athymice BALB/c nude mice (5-8 week-old) were housed in the Biological Resource Centre. Mice were implanted subcutaneously in both sides of flank with 3×10^6 DLD1-PPP2R2B or control DLD1 cells, respectively.
When tumors reached ˜70 mm^3, the mice were divided two groups (6 mice per group) and the Doxycyclin was administrated by oral gavages at 100 mg/kg daily. Tumor progress was monitored with whole body weight and tumor size for every other day. For combination treatment with rapamycin and doxycycline, the same dose of doxycyclin was given at every other day and rapamycin was administered by intraperitoneal injection at 4 mg/kg at Day 3, 5, 7 and 11.
Tumor diameters were measured every 3-4 days with caliper and tumor volumes were calculated from 7-9 mice per data time point. All animal work was performed in accordance with animal experiments guidelines of Singapore.

[7] = test system: adjuvant arthritis; conditions: model for rheumatoid arthritis; cited from earlier work
[8] = animal models; cited from earlier work
[9] = test system: cytochrome P-450 3A; conditions: cited from earlier work
[10] = test system: DLD1-PPP2R2B cells; assay: Cell cycle analysis by flow cytometry in DLD1-PPP2R2B cells; format: cell-based, human; conditions: rapamycin added to Dox-induced PPP2R2B expression, 48 h
Description: as §2
The cells were fixed with 70% ethanol and stained with propidium iodide (50 μg/ml) staining. The stained cells were analyzed by FACScalibur (BD Bioscience) and quantified by using CellQuest software (BD bioscience).

[11] = bile of treated rats; cited from earlier work
[12] = test system: HCT116 and DKO cells; assay: Rapamycin-induced growth inhibition in HCT116 and DKO cells; format: cell-based, human; conditions: DKO cells compared to parental HCT116 cells
Description: as §1, §2

[13] = test system: CRC cell lines; assay: Cell viability (CellTiter-Glo): rapamycin-induced growth inhibition in CRC cell lines; format: cell-based; conditions: Homo sapiens, 120 h; 10 nM rapamycin, 5 days treatment, all examined CRC cell lines; read-out: rapamycin-induced growth inhibition compared to untreated cells
Description: as §1, §2

[14] = test system: neurodegeneration; conditions: fly model of HD; cited from earlier work
[15] = test system: DLD1-PPP2R2B cells; assay: Cell viability assay in DLD1-PPP2R2B cells; format: cell-based, human; conditions: 10 nM rapamycin, PPP2R2B re-expressed by Dox vs no Dox, 5 days
Description: as §1, §2

[16] = test system: p70S6K and S6 phosphorylation; assay: Immunoblot analysis of p70S6K and S6 phosphorylation; format: cell-based, human; conditions: DLD1 vector control and PPP2R2B expressing cells, 10 nM rapamycin
[17] = test system: p-AKT (S473); assay: Immunoblot analysis of AKT S473 phosphorylation; format: cell-based, human
[18] = test system: experimental allergic encephalomyelitis; conditions: model for multiple sclerosis; cited from earlier work
[19] = test system: DLD1-PPP2R2B cells; assay: Dense foci / colony formation assay in DLD1-PPP2R2B cells; format: cell-based, human; conditions: 10 nM rapamycin, PPP2R2B re-expressed by Dox vs no Dox, 14 days
Description: For DLD1 and HCT116 inducible cells foci formation assay, 1×10^4 cells were seeded on 6-well plate with or without treatment with Dox or rapamcycin. Cells were grown for 2 weeks and the surviving colonies were stained with gentian violet after methanol fixation, and visible colonies (>50 cells) were counted.

[20] = test system: p-Myc(T58/S62); assay: Immunoblot analysis of Myc phosphorylation; format: cell-based, human
[21] = test system: Candida albicans; conditions: in vitro and in vivo; cited from earlier work
[22] = test system: IgE-like antibodies; conditions: in vivo; cited from earlier work
[23] = test system: huntingtin accumulation and cell death; conditions: cell models of HD; cited from earlier work
[24] = test system: PPP2R2B-expressing cancer cell lines; assay: Rapamycin-induced growth inhibition in PPP2R2B-expressing cancer cell lines; format: cell-based, human; conditions: 10 nM rapamycin, 5 days; compared to CRC cell lines
Description: as §1, §2

[25] = DLD1 cells serum starved 48 h, then 10 nM rapamycin

## CC[C@@H]1C(=O)N(C)c2cnc(Nc3ccc(C(=O)NC4CCN(C)CC4)cc3OC)nc2N1C1CCCC1 [BI2536]
[1]
  apoptosis: selectively induced apoptosis in PDK1-transformed cells
[2]
  growth inhibition in combination with BEZ235: strong synergistic growth inhibition
[3]
  tumor sphere formation: blocks the tumor sphere formation; also recorded: abolished the PDK1-driven tumorspheres formation
[4]
  long term colony formation in combination with BEZ235: strong synergistic
[5]
  apoptosis in combination with BEZ235: strong synergistic

## CO[C@H]1C[C@@H]2CC[C@@H](C)[C@@](O)(O2)C(=O)C(=O)N2CCCC[C@H]2C(=O)O[C@H]([C@H](C)C[C@@H]2CC[C@@H](O)[C@H](OC)C2)CC(=O)[C@H](C)/C=C(\C)[C@@H](O)[C@@H](OC)C(=O)[C@H](C)C[C@H](C)/C=C/C=C/C=C/1C [rapamycin, (3S,6R,7E,9R,10R,12R,14S,15E,17E,19E,21S,23S,26R,27R,34aS)-9,10,12,13,14,21,22,23,24,25,26,27,32,33,34,34a-hexadecahydro-9,27-dihydroxy-3-[(1R)-2-[(1S,3R,4R)-4-hydroxy-3-methoxycyclohexyl]-1-methylethyl]-10,21-dimethoxy-6,8,12,14,20,26-hexamethyl-23,27-epoxy-3H-pyrido[2,1-c][1,4]-oxaazacyclohentriacontine-1,5,11,28,29(4H,6H,31H)-pentone]
[6]; rapamycin 4 mg/kg i.p. or Dox 100 mg/kg oral alone, every other day
  xenograft tumor growth, single treatment: moderately attenuated
[6]; rapamycin 4 mg/kg plus Dox 100 mg/kg (PPP2R2B re-expression)
  xenograft tumor growth, combination of rapamycin and Dox: strong tumor growth inhibition
[7]
  efficacy: effective
[8]
  nephrotoxicity: no nephrotoxicity has been detected
[9]
  number of metabolites formed: at least six metabolites
[10]
  cell cycle G2 arrest: markedly augmented
[11]
  number of hydroxylated and demethylated metabolites detected: > 16
[12]
  sensitivity to rapamycin treatment: more sensitive
[13]
  inhibition at 0.01 µM: < 10%
[14]
  neurodegeneration: protects against neurodegeneration
[15]
  rapamycin-induced growth inhibition (cell viability assay): much more effective
[16]
  p70S6K and S6 phosphorylation: effectively abolished
[17]; CRC cells (DLD1), 10 nM rapamycin
  AKT S473 phosphorylation: induction of AKT S473 phosphorylation
[17]; [25]
  rapamycin-induced AKT S473 phosphorylation under serum starvation: abolished
[17]; HCT116 and DKO cells, 10 nM rapamycin
  AKT S473 phosphorylation: similarly induced
[17]; PPP2R2B-expressing cancer cell lines
  AKT S473 phosphorylation: consistent induction of AKT S473 phosphorylation
[18]
  efficacy: effective
[19]
  rapamycin-induced growth inhibition (colony formation assay): much more effective
[20]; DKO (DNMTs-deficient HCT116) cells, 10 nM rapamycin
  Myc phosphorylation: did not respond to rapamycin
[20]; [25]
  rapamycin-induced Myc phosphorylation under serum starvation: no significant effect
[20]; DLD1 cells, 10 nM rapamycin, 48 hr
  Myc phosphorylation and protein accumulation: strong induction of Myc phosphorylation and protein accumulation; also recorded: induces Myc phosphorylation
[20]; DLD1 cells, 10 nM rapamycin, time course
  time at which the Myc response occurred: 4 h
[20]; HCT116 cells, 10 nM rapamycin
  Myc phosphorylation: strongly induced
[20]; PPP2R2B-expressing cancer cell lines (HepG2, HepB3, 786-O, Caki2, OVCAR3, OVCAR5, SK-OV-3, U2OS)
  Myc phosphorylation: none of these PPP2R2B-expressing cancer cell lines showed an induction of Myc phosphorylation
[20]; all examined CRC cell lines, rapamycin 48 hr
  Myc phosphorylation: marked induction of Myc phosphorylation
[21]
  antifungal activity: antifungal activity
[22]
  formation of IgE-like antibodies: effectively inhibited
[23]
  huntingtin accumulation and cell death: attenuates huntingtin accumulation and cell death
[24]
  sensitivity to rapamycin: much more sensitive
